Assay results: patent publication US8435744B2 (priority 2005, dated 2013)
pIC50: −log10 of the molar value. Read-outs that look alike come from different tables or passages of the source.

How the values were obtained:
[1] = target: PrP^Sc content in the cells (Mus musculus, UniProt P04925); conditions: read-out: IC50 (concentration for which 50% of the PrP^Sc content in the cells is inhibited); cited from earlier work
[2] = target: PrP^Sc from infected N2a58/22L cells (Mus musculus, UniProt P04925); format: cell-based, murine
[3] = target: PrP^C from uninfected N2a58 cells (Mus musculus, UniProt P04925); format: cell-based, murine; conditions: uninfected cells, 1 to 10 μM, FIG. 3
[4] = prolonged incubation up to 14 days, 5 and 20 μM, FIG. 4

Sequence of PrP^Sc from infected N2a58/22L cells (P04925 23-230 limits assumed): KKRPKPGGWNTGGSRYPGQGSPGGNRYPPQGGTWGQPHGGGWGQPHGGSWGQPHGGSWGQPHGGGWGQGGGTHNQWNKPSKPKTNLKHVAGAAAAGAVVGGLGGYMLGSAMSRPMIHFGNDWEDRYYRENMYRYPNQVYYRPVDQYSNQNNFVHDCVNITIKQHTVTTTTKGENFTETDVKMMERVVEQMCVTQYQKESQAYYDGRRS
Sequence of PrP^Sc content in the cells (P04925 23-230 limits assumed): as above
Sequence of PrP^C from uninfected N2a58 cells (P04925 23-230 limits assumed): as above

## N#Cc1c(N)nc(Sc2ccccc2N)c(C#N)c1-c1ccco1 [2-amino-6-[(2-aminophenyl)thio]-4-(2-furyl)pyridine-3,5-dicarbonitrile]
[1]
  pIC50: ~4.82

## COc1ccc(S(=O)(=O)NNC(=O)c2ccc(Cn3cnc(Cl)c3Cl)o2)cc1 [N′-1-({5-[(4,5-dichloro-1H-imidazol-1-yl)methyl]-2-furyl}carbonyl)-4-methoxybenzene-1-sulfonohydrazide]
[1]
  pIC50: ~4.82

## CSc1nccc(-c2ccc(Br)s2)n1 [compound A, 4-(5-bromo-2-thienyl)-2-(methylthio)pyrimidine]
[2]; 5 μM
  time at which the state of equilibrium of amplified oligomeric forms is reached: 11 days
[2]; 20 μM
  time at which the state of equilibrium of amplified oligomeric forms is reached: 3 days
[2]; 20 μM, N2a58/22L cells, immunoblot after PK
  increase in the signal on the oligomeric forms compared with an untreated control: approximately 90 fold
[2]; infected cells, immunoblotting after proteinase K, FIGS. 1 and 2
  effect on the amount of PrP^Sc in the infected cells: notably increases the amount of PrP^Sc
[2]; [4]
  appearance of oligomeric forms of greater size than those observed over 3 days: does not induce the appearance of oligomeric forms having a size greater
  depletion of monomeric form PrP^Sc27-30 to the benefit of oligomeric forms around 50-60 kDa: No depletion
[3]
  oligomerization of PrP^C in the cells: does not increase the oligomerization of PrP^C

## Nc1nccc(-c2ccc(-c3cccs3)s2)n1 [compound B, 4-(5-thienyl-2-thienyl)-2-(amino)-pyrimidine]
[2]; 14 days, 20 μM, FIG. 6
  amount of oligomeric forms observed compared with compound A: much greater than for the compound A
[2]; N2a58/22L cells, 3 days, 5 to 20 μM
  amount of oligomeric forms of PrP^Sc at 5 μM versus higher concentrations: identical to that observed for the concentration of 10 or 20 μM
[2]; incubation period of 14 days
  amplification capacity, comparative kinetics between compounds B and A: greater amplification capacity
